{
  "source": "patent US20120058500A1",
  "about": "“PLATELET AGGREGATION USING A MICROFLUIDICS DEVICE” (Monash University, priority 2009, published 2012)",
  "key": {"[1]": {"tested_on": "platelet aggregation in human whole blood", "test": "Anti-platelet inhibitor effects in microchannel, c85 g30 e85 100-100 μm format", "assay_type": "cell-based", "settings": "10 mins pre-treatment, hirudin anti-coagulated whole blood, FIG. 22", "protocol": "(§1) Blood samples from subjects were taken via venisection of the antecubital vein using a 10 ml syringe fitted with a 19 guage needle containing 800 U/ml hirudin as anticoagulant.\n(§2) Blood perfusion studies through the device were carried out using hiridin (800 U/ml) anticoagulated whole blood taken from consenting human donors. Whole blood samples were incubated at 37° C. for 10 minutes with the lipophylic membrane dye DiOC6 (1 μg/ml) or DiICl2 (1 μg/ml) to allow the cells to be more readily visualised through the device.\nThe micro-geometry device used in the present example has a contraction angle (θc) of 85°, an expansion angle (θe) of 85°, a gap width of 30 μm, a gap length of 15 μm and channel entry and exit width of 100 μm (c85 g30 e85 100-100 μm format).\nThe following anti-platelet drugs were used either alone or in combination: • 1. Hirudin: Human whole blood anti-coagulated with Hirudin (800 U/ml) as a control. • 2. Hirudin+MRS: Human (hirudin anti-coagulated) whole blood pre-treated for 10 mins with 100 μM of the P2Y1 adenosine-5′-diphosphate (ADP) antagonist N6-methyl-2′-deoxyadenosine-3′,5′-bisphosphate (MRS2179). • 3. Hirudin+2Me: Human (hirudin anti-coagulate) whole blood pre-treated for 10 mins with 10 μM of the P2Y12 (ADP) antagonist 2-methylthio-AMP (2MesAMP). • 4. […]"}, "[2]": {"tested_on": "platelet aggregation in human blood", "settings": "treated samples versus normal samples, specific microchannel geometries", "source_text": "It will be further appreciated that the device and method of the invention can be used to assay the effectiveness of particular drugs or substances."}, "[3]": {"tested_on": "platelet aggregation in whole blood", "test": "Real-time epi-fluorescence imaging of DiOC6 labeled whole blood perfusion through the c60g20e60 microchannel", "assay_type": "cell-based, human", "settings": "20 μg/ml; blood also pre-treated with apyrase, MRS2179, 2-MeSAMP, Indomethacin, hirudin; 16 μL/min, input strain rate 1,800 s-1", "protocol": "as §1, §2\nFIG. 20a represents real-time epi-fluorescence imaging of DiOC6 labeled whole blood perfusion at a constant flow rate of 16 μL/min (input strain rate=1,800 s−1) through the c60g20e60 geometric format over a 10 min timeframe, following pre-treatment for 10 minutes with the platelet inhibitors apyrase (0.02 U/ml), N6-methyl-2′-deoxyadenosine-3′,5′-bisphosphate (MRS2179 at 100 μM) and 2-methylthio-AMP (2-MeSAMP at 10 μM) to block ADP; Indomethacin (10 μM) to block TXA2; and hirudin (800 U/ml) to block thrombin. […] To investigate the platelet adhesion receptors mediating the aggregation response, whole blood samples were pretreated with the anti-integrin αIIbβ3 ab c7E3 (20 μg/ml) to block the platelet integrin αIIbβ3 or the anti-GPIb IgG Alma12 (50 μg/ml) to block platelet GPIb/V/IX engagement of VWF."}, "[4]": {"tested_on": "platelet aggregation in hirudin-anticoagulated whole blood", "test": "Whole blood perfusion through step geometry micro-shear gradient device (c90 g10 e60 100-700 μm format), platelet aggregation traces", "assay_type": "cell-based, human", "settings": "whole blood treated 10 minutes with 30 μg/ml prior to perfusion; input shear rate 1,800 s^-1; FIG. 11c", "protocol": "as §1, §2\nFIG. 11a is a representative micrograph (40× magnification) sequence of human (hirudin anti-coagulated) blood perfusion through a micro-shear gradient device consisting of an in-flow (entry) width of 100 μm, a contraction angle (θc) of 90°, a gap height of 10 μm, an expansion angle (θe)) of 60°, and an expansion/exit width of 700 μm. The grey arrow denotes the point of initial aggregation [t=12 sec], the black arrow designates the limit of thrombus growth in the expansion zone (representative of n=3 experiments).\nFIG. 11c comprises representative aggregation traces showing the response of whole blood perfusion through the PDMS microchannel device depicted in FIG. 11a. […]"}},
  "note": "Positions of bridges follow the written chain, without caps; N, C: chain ends. Non-standard residues stand in square brackets, D forms with d. Residues, ends and D or L forms follow the SMILES beside them. hArg = N=C(N)NCCCC[C@H](N)C(=O)O; Mpa = O=C(O)CCS",
  "data": [
    {"molecule": "CNc1ncnc2c1ncn2[C@H]1C[C@H](OP(=O)(O)O)[C@@H](COP(=O)(O)O)O1", "note": "[MRS, N6-methyl-2′-deoxyadenosine-3′,5′-bisphosphate]", "values": [
      {"measurement": "effect on the aggregation profile in the device", "setting": "[1]; 100 μM, compared with the P2Y12 inhibitor", "value": "much more marked effect"}
    ]},
    {"molecule": "CSc1nc(N)c2ncn([C@@H]3O[C@H](COP(=O)(O)O)[C@@H](O)[C@H]3O)c2n1", "note": "[inhibitor of the P2Y12 (ADP) receptor, 2-methylthio-AMP]", "values": [
      {"measurement": "reduction in overall aggregation in the device", "setting": "[1]; 10 μM", "value": 50, "unit": "%"}
    ]},
    {"molecule": "N=C(N)NCCCC[C@@H]1NC(=O)CCSSC[C@@H](C(N)=O)NC(=O)[C@@H]2CCCN2C(=O)[C@H](Cc2c[nH]c3ccccc23)NC(=O)[C@H](CC(=O)O)NC(=O)CNC1=O", "note": "[integrilin] ([Mpa][hArg]GDWPC-NH2; disulfide 1-7)", "values": [
      {"measurement": "platelet aggregation profile versus normal samples", "setting": "[2]", "value": "different platelet aggregation profile"}
    ]},
    {"molecule": "c7E3 Fab: anti-integrin αIIbβ3 ab c7E3, used to block the platelet integrin αIIbβ3 (antibody, chains of the INN, looked up, V domains shown, Fab) VH: EVQLQQSGTVLARPGASVKMSCEASGYTFTNYWMHWVKQRPGQGLEWIGAIYPGNSDTSYIQKFKGKAKLTAVTSTTSVYMELSSLTNEDSAVYYCTLYDGYYVFAYWGQGTLVTVSA VL: EIVLTQSPVTLSVTPGDSVSLSCRASRDISNNLHWFQQTSHESPRLLIKYASQSMSGIPSRFSGSGSGTDFTLSINSVETEDFGMYFCQQTNSWPYTFGGGTKLEIK", "values": [
      {"measurement": "platelet aggregation within the c60g20e60 geometry", "setting": "[3]", "value": "completely inhibited"},
      {"measurement": "initial recruitment at the stenosis apex", "setting": "[4]", "value": "markedly delayed"},
      {"measurement": "overall aggregation", "setting": "[4]", "value": "suppressed"}
    ]}
  ]
}
